# Reference: patent US4831053A, “Composition for prophylaxis and therapy of hepatitis” (Otsuka Pharmaceutical Co., Ltd., priority 1979, dated 1989)
# Tests used:
# [1] = Acute toxicity (intravenous); conditions: in vivo, rat
# Protocol: The acute toxicity of the compound obtained in Synthesis Example 2 was determined by administering it intravenously to rat. The LD50 value obtained was 500 mg/kg.
# [2] = Tautomer equilibrium in solution (NMR); assay type: physicochemical; conditions: methanol or pyridine as solvent
# Protocol: Integration of the areas under the peak signals indicates a proportion of the former to the latter of about 73:27. After 2 hours the peak at 9.89 ppm increase further to an extent that the integrated proportions become about 70:30, and this proportion remains unchanged according to NMR analysis even after 63 hours. From this it follows that the compound represented by formula (I) and that represented by formula (II) are present in a molar proportion of about 7:3 in the solution. However, when methanol or pyridine is used as a solvent, the compound of formula (II) is not formed.
# [3] = test system: fulminant hepatitis (Schwarzman hepatitis); test: Schwarzman hepatitis (endotoxin-induced fulminant hepatitis): serum GOT and LDH levels, liver sections; assay type: in vivo, S.D. strain rats
# Protocol: The test for evaluating the prophylactic and therapeutic effect of the compound represented by the formula (I) or (II) was conducted in accordance with the method of Mori et al., Kanzo, Vol. 17, pp. 580-589 (1976), using S.D. strain rats having a body weight of about 300 g as test animals, and causing fulminant hepatitis (Schwarzman hepatitis) to occur. More particularly, 4 test groups, each consisting of 5 S.D. strain rats, were administered 0.1 mg/body of endotoxin (LPS: E. coli 0.26: B6, a product of Difco Co.) peritoneally (by injection), and after 48 hours the same endotoxin preparation was administered by injection to each group at a dosage of 0.05, 0.2, 0.5 or 1.2 mg/body for boostering. On the other hand, 5 mg/body of the active ingredient of the agent of this invention was administered peritoneally by injection once a day for 6 days. This treatment was initiated 2 days before the first administration of endotoxin took place and ended on the day after the second administration of endotoxin for boostering. The test animals were victimized (i.e., destroyed and analyzed) 48 hours after the second administration of endotoxin, and the levels of GOT and LDH in the serum of the victimized rats were determined using a UV method described in American Journal of Clinical Pathology, Vol. 47, pp. 419-428 (1967) and Cancer Research, Vol. 14, pp. 513-515 (1954). In addition, degree of occurrence of hepatic necrosis and distribution of endotoxin in the liver were obseved microscopically using sections of liver of the victimized animals. The compound obtained in Synthesis Example 2 was used as the active ingredient. The same procedure was repeated on animals of 4 control groups which were not administered the active ingredient. The levels of GOT and of LDH in the serum determined for the group which received endotoxin boostering amount of 0.5 mg/body at the second administration and for the control group are shown in FIGS. 1 and 2, respectively. In FIGS. 1 and 2, the symbol o indicates the values obtained for each test animal in the group. Evaluation of the results was made based on the average value ± an error obtained by statistical treatment thereof. […] The sections of livers of the test animals of the same groups as above were observed using the fluorescence antibody method described in Journal of Experimental Medicine, Vol. 91, pp. 1-13 (1950).
# complement = test: Anti-complement activity
# Protocol: A 30-liter jar fermentor was charged with 20 liters of a culture medium of the above formulation, and one flask of the resulting seed culture was cultivated in the culture medium at 28° C. for 5 days with stirring at 300 rpm at an aeration rate of 1 liter per liter of the culture medium per minute. The resulting culture broth was centrifuged at a speed of 8,000 rpm to remove the microbial cells. To the supernatant liquid was added 5 liters of methanol, and the mixture was stirred and then allowed to stand for 3 hours. The mixture was centrifuged and the solid material was removed. The supernatant was extracted with an equal quantity, by volume, of ethyl acetate. The solvent of the ethyl acetate layer was distilled off under reduced pressure. The residue was dissolved in methanol, and passed through a column of activated carbon. The eluate was concentrated to dryness under reduced pressure. The dried mass was dissolved in a mixture of chloroform and ethyl acetate (1:1, v/v) and gel-filtered through a column of Sephadex LH-20. […] The compound had the following physicochemical characteristics.
# chronic hepatitis = test: Clinical data: patient with chronic hepatitis, GOT, GPT and serum bilirubin before and after administration; assay type: in vivo; conditions: human, oral, about 500 mg twice a day
# Protocol: This treatment was continued for 2 months.
# The levels of glutamic oxalacetic transaminase (GOT), glutamic pyruvic transaminase (GPT) and serum bilirubin (SB) were determined according to the conventional methods described in Am. J. Clin. Path., 28, 56-63 (1957) (for GOT and GPT) and in J. Biol. Chem., 119, 481-490 (1937) (for SB), and compared with the data obtained before the administration, as shown in Table below.
# [4] = microscopic observation of liver sections (×100), FIG. 3b
# [5] = rat, 5 mg/body i.p. once a day for 6 days, endotoxin booster 0.5 mg/body, vs control group
compound,measurement,setting,value
"CC1CCC2C(C)(C)C(O)C(O)CC2(C)C12Cc1c(O)cc3c(c1O2)C(O)OC3=O (stereo not shown) [Synthesis Example 2, 4,8-dihydroxy-6-oxo-2,3,6,8-tetrahydro-furo[3,4-g]benzofuran-2-spiro-1'-(6',7'-dihydroxy-2',5',5',8'a-tetramethyl-1',2',3',4',4'a,5',6',7',8',8'a-decahydronaphthalene)]",LD50,[1],500 mg/kg
same,formation of compound of formula (II) in solution,[2],not formed
same,distribution of endotoxin in the liver,"[3]; fluorescence antibody method, liver sections, FIG. 4b",strongly localized in Kupffer cells but scarcely outside the cells
same,degree of cell degeneration of liver cells,[3]; [4],very slight
same,occurrence of damage of cells of liver,[3]; [4],significantly inhibited or such damage was substantially cured
same,level of GOT in the serum,[3]; [5],significantly lower than those of the control group
same,level of LDH in the serum,[3]; [5],significantly lower than those of the control group
same,occurrence of fulminant hepatitis (Schwarzman hepatitis),"[3]; rat, 5 mg/body i.p. once a day for 6 days, from GOT and LDH levels",significantly inhibits the occurrence of fulminant hepatitis
"CC1CCC2C(C)(C)C(O)C(O)CC2(C)C12Cc1c(O)cc(C=O)c(C=O)c1O2 (stereo not shown) [Synthesis Example 1, 6,7-dihydroxy-2,5,5,8a-tetramethyl-1,2,3,4,4a,5,6,7,8,8a-decahydronaphthalene-1-spiro-2'-(6',7'-diformyl-4'-hydroxy-2',3'-dihydrobenzofuran)]",anti-complement activity,complement,having an anti-complement activity
"CC1CCC2C(C)(C)C(O)C(O)CC2(C)C12Cc1c(O)cc(C(=O)O)c(C=O)c1O2 (stereo not shown) [Synthesis Example 3, disodium 6,7-dihydroxy-2,5,5,8a-tetramethyl-1,2,3,4,4a,5,6,7,8,8a-decahydronaphthalene-1-spiro-2'-(6'-carboxylate-7'-formyl-4'-oxide-2',3'-dihydrobenzofuran)]",feeling with respect to fatigue and loss of strength,"chronic hepatitis; 2 months, described by patient",considerably improved feeling
same,SB (serum bilirubin),"chronic hepatitis; after administration (2 months), before: 2.6",1.5 mg/dL
same,GPT,"chronic hepatitis; after administration (2 months), before: 143",67 unit
same,GOT,"chronic hepatitis; after administration (2 months), before: 180",45 unit
